Counter-ions that a name gives are not always drawn. Like-named read-outs stand apart in the source and are kept apart here. Values belong to the compound of their own block, whether it stands above or below them.
Experiments:
[1] = system: TGF-beta-induced phosphorylation of Smad2 and Smad3 in Mv1-Lu cells; assay: Inhibition of Smad2/3 phosphorylation in Mv1Lu cells (Example 35A); assay type: cell-based, mink Mustela vison; conditions: Neogale vison, read-out: TβR activity (Example 35A)
Procedure: Inhibition of Smad2/3 Phosphorylation in Mv1Lu Cells by TGF-bta Receptor I Kinase Inhibitors
This assay was used to determine the inhibitory potency of compounds on TGF-beta-induced phosphorylation of Smad2 (Ser465/467) and Smad3 (Ser423/425). Mv1-Lu cells (lung epithelial cell line from mink Mustela vison; ATCC number: CCL-64) were seeded in DMEM (Invitrogen) supplemented with 10% fetal bovine serum (Pan Biotech) at a defined cell density in 24-well or 96-well plates (24-well plate: 1.5×10^5 cells per well; 96-well plate: 4×10^4 cells per well). Cell cultures were incubated in DMEM at 37° C. and 10% CO2. On the next day, the medium was replaced and cells were serum-starved for 16-20 hours. The following day, serial dilutions of compounds were added to the wells, pre-incubated for 1.5 hrs before recombinant TGF-beta 1 ligand (final concentration 5 ng/ml; R&D systems) was added. After one hour of ligand stimulation, lysates were prepared and analyzed using an enzyme-linked immunosorbent assay kit (PathScan Phospho-Smad2 Kit, Cell Signaling Technologies). The ELISA detects phosphorylated Smad2 as well as phosphorylated Smad3 with the phospho-specific antibody. TGF-beta stimulated cells and unstimulated cells served as positive and negative controls (100% and background control). The concentration of the vehicle DMSO was kept constant at 0.2% (v/v) in all wells. Dose-response relationships were fitted using curve fitting algorithms of the RS1 statistics software package (Brooks Automation Inc. RS/1—Statistical Tools Handbook. Release 6.2) to determine the concentration at which half-maximal inhibition (IC50) of Smad2/3 phosphorylation was achieved.

GST-ALK5 = molecular target: T1, GST-ALK5 (Homo sapiens, UniProt P36897); assay: In-vitro (enzyme) kinase assay, 384-well flashplate (Example 36); assay type: biochemical; conditions: read-out: TβR activity (Example 36)
T1 sequence (P36897 34-503): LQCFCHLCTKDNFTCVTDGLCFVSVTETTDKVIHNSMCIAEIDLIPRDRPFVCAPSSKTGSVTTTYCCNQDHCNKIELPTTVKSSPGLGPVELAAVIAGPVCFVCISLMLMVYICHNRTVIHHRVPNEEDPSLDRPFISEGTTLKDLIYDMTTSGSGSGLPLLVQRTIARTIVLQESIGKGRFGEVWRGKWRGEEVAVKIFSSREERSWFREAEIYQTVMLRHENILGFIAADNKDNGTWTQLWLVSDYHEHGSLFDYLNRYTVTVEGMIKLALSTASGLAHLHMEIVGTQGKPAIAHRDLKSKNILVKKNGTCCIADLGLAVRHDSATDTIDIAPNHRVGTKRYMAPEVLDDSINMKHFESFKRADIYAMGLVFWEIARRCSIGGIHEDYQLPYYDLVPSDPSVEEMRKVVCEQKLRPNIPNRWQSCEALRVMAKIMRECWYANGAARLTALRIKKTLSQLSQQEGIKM
Procedure: In-vitro (Enzyme) Assay for Determination of the Efficacy of Inhibitors of the Inhibition of TGF-beta-Mediated Effects
The kinase assay was carried out as 384-well flashplate assay. 31.2 nM of GST-ALK5, 439 nM of GST-SMAD2 and 3 mM of ATP (with 0.3 μCi of ^33P-ATP/well) were incubated in a total volume of 35 μl (20 mM of HEPES, 10 mM of MgCl2, 5 mM of MnCl2, 1 mM of DTT, 0.1 of BSA, pH 7.4) without or with test substance (5-10 concentrations) at 30° C. for 45 min. The reaction was stopped using 25 μl of 200 mM EDTA solution, filtered with suction at room temperature after 30 min, and the wells were washed with 3 times 100 μl of 0.9% NaCl solution. Radioactivity was measured in the TopCount. The IC50 values were calculated using RS1.

[2] = Mv1-Lu cells, TGF-beta 1 5 ng/ml, phospho-Smad2/3 ELISA
[3] = GST-ALK5, GST-SMAD2 substrate, 3 mM ATP, 30° C., 45 min

Structure (SMILES): Fc1ccccc1-c1cc(-c2cncc(-c3cnn(C4CCNCC4)c3)c2)c2cccnc2n1 [compound 29, 2-(2-Fluoro-phenyl)-4-[5-(1-piperidin-4-yl-1H-pyrazol-4-yl)-pyridin-3-yl]-[1,8]naphthyridine dihydrochloride]
IC50 [1]: < 100 nM
IC50 (GST-ALK5; [3]): < 100 nM

Structure (SMILES): Cc1ccn(-c2cc(-c3cncc(Br)c3)c3cccnc3n2)n1 [4-(5-Bromo-pyridin-3-yl)-2-(3-methyl-pyrazol-1-yl)-[1,8]naphthyridine]
IC50 ([1]; Table 2, intermediate, Smad2/3 phosphorylation in Mv1-Lu cells): > 10000 nM
IC50 (GST-ALK5; Table 2, intermediate, GST-ALK5 flashplate assay): > 10000 nM

Structure (SMILES): CN1CCC(n2cc(-c3cncc(-c4cc(-c5cc(Cl)ccc5F)nc5ncccc45)n3)cn2)CC1 [compound 51, 2-(5-Chloro-2-fluoro-phenyl)-4-{6-[1-(1-methyl-piperidin-4-yl)-1H-pyrazol-4-yl]-pyrazin-2-yl}-[1,8]naphthyridine]
IC50 [1, 2]: < 100 nM
IC50 (GST-ALK5; [3]): < 100 nM

Structure (SMILES): Cc1cccc(-c2cc(-c3cncc(-c4cnn(C)c4)c3)c3cccnc3n2)n1 [compound 10, 4-[5-(1-Methyl-1H-pyrazol-4-yl)-pyridin-3-yl]-2-(6-methyl-pyridin-2-yl)-[1,8]naphthyridine]
IC50 [1, 2]: 1000 to 10000 nM
IC50 (GST-ALK5; [3]): 100 to 1000 nM

Structure (SMILES): Fc1ccc(Cl)cc1-c1cc(-c2cncc(-c3ccccc3)c2)c2ccccc2n1 [compound 6, 2-(5-Chloro-2-fluoro-phenyl)-4-(5-phenyl-pyridin-3-yl)-quinoline]
IC50 [1, 2]: > 10000 nM
IC50 (GST-ALK5; [3]): 1000 to 10000 nM

Structure (SMILES): CN1CCC(n2cc(-c3cncc(-c4cc(-c5cc(Cl)ccc5F)nc5ncccc45)c3)nn2)CC1 [compound 57, 2-(5-Chloro-2-fluoro-phenyl)-4-{5-[1-(1-methyl-piperidin-4-yl)-1H-[1,2,3]triazol-4-yl]-pyridin-3-yl}-[1,8]naphthyridine]
IC50 [1, 2]: < 100 nM
IC50 (GST-ALK5; [3]): < 100 nM

Structure (SMILES): OCCn1cc(-c2cncc(-c3cc(-c4cc(C(F)(F)F)ccc4F)nc4ncccc34)c2)cn1 [compound 37, 2-(4-{5-[2-(2-Fluoro-5-trifluoromethyl-phenyl)-[1,8]naphthyridin-4-yl]-pyridin-3-yl}-pyrazol-1-yl)-ethanol]
IC50 [1, 2]: 100 to 1000 nM
IC50 (GST-ALK5; [3]): < 100 nM

Structure (SMILES): CN1CCC(n2cc(-c3cncc(-c4cc(-c5cc(Cl)ccc5F)nc5ncccc45)c3)cn2)CC1 [compound 25, 2-(5-chloro-2-fluoro-phenyl)-4-{5-[1-(1-methyl-piperidin-4-yl)-1H-pyrazol-4-yl]-pyridin-3-yl}-[1,8]naphthyridine]
IC50 [1]: < 100 nM
IC50 (GST-ALK5; [3]): < 100 nM

Structure (SMILES): Fc1ccc(Cl)cc1-c1cc(-c2cncc(-c3cn(CCN4CCOCC4)nn3)c2)c2cccnc2n1 [compound 42, 2-(5-chloro-2-fluoro-phenyl)-4-{5-[1-(2-morpholin-4-yl-ethyl)-1H-[1,2,3]triazol-4-yl]-pyridin-3-yl}-[1,8]naphthyridine]
IC50 [1, 2]: 100 to 1000 nM

Structure (SMILES): OCCn1cc(-c2cncc(-c3cc(-c4ccccc4F)nc4ncccc34)c2)cn1 [compound 40, 2-(4-{5-[2-(2-fluoro-phenyl)-[1,8]naphthyridin-4-yl]-pyridin-3-yl}-pyrazol-1-yl)-ethanol]
IC50 [1, 2]: 100 to 1000 nM

Structure (SMILES): CN1CCC(c2nc(-c3cncc(-c4cc(-c5ccccc5F)nc5ncccc45)c3)no2)CC1 [compound 60, 2-(2-fluoro-phenyl)-4-{5-[5-(1-methyl-piperidin-4-yl)-[1,2,4]oxadiazol-3-yl]-pyridin-3-yl}-[1,8]naphthyridine]
IC50 (GST-ALK5; [3]): 100 to 1000 nM

Structure (SMILES): Fc1ccccc1-c1cc(-c2cncc(-c3cnn(CCN4CCOCC4)c3)c2)c2cccnc2n1 [compound 41, 2-(2-Fluoro-phenyl)-4-{5-[1-(2-morpholin-4-yl-ethyl)-1H-pyrazol-4-yl]-pyridin-3-yl}-[1,8]naphthyridine]
IC50 [1, 2]: 100 to 1000 nM

Next, values leading:

IC50 [1, 2]: 100 to 1000 nM
IC50 (GST-ALK5; [3]): < 100 nM
Structure (SMILES): Nc1ccc(-c2cncc(-c3cc(-c4cc(Cl)ccc4F)nc4ncccc34)c2)cn1 [compound 169, 5′-[2-(5-Chloro-2-fluoro-phenyl)-[1,8]naphthyridin-4-yl]-[3,3′]bipyridinyl-6-ylamine]

IC50 [1, 2]: < 100 nM
IC50 (GST-ALK5; [3]): < 100 nM
Structure (SMILES): CCN1CCC(c2ccc(-c3cncc(-c4cc(-c5cc(F)ccc5F)nc5ncccc45)c3)cc2)CC1 [compound 123, 2-(2,5-Difluoro-phenyl)-4-{5-[4-(1-ethyl-piperidin-4-yl)-phenyl]-pyridin-3-yl}-[1,8]naphthyridine]

IC50 [1, 2]: 1000 to 10000 nM
IC50 (GST-ALK5; [3]): 100 to 1000 nM
Structure (SMILES): Fc1ccc(Cl)cc1-c1cc(-c2cncc(-c3ccc(Cl)nn3)c2)c2cccnc2n1 [compound 107, 2-(5-Chloro-2-fluoro-phenyl)-4-[5-(6-chloro-pyridazin-3-yl)-pyridin-3-yl]-[1,8]naphthyridine]

IC50 (GST-ALK5; [3]): 100 to 1000 nM
Structure (SMILES): CN1CCN(c2ccnc(-c3cncc(-c4cc(-c5ccccc5F)nc5ncccc45)c3)n2)CC1 [compound 70, 2-(2-fluoro-phenyl)-4-{5-[4-(4-methyl-piperazin-1-yl)-pyrimidin-2-yl]-pyridin-3-yl}-[1,8]naphthyridine]

IC50 [1, 2]: > 10000 nM
IC50 (GST-ALK5; [3]): > 10000 nM
Structure (SMILES): N#Cc1cccc(-c2cncc(-c3cc(-c4cc(Cl)ccc4F)nc4ncccc34)c2)n1 [compound 160, 5′-[2-(5-Chloro-2-fluoro-phenyl)-[1,8]naphthyridin-4-yl]-[2,3′]bipyridinyl-6-carbonitrile]

IC50 [1, 2]: < 100 nM
IC50 (GST-ALK5; [3]): < 100 nM
Structure (SMILES): NCCc1cccc(-c2cncc(-c3cc(-c4cc(Cl)ccc4F)nc4ncccc34)c2)c1 [compound 166, 2-(3-{5-[2-(5-Chloro-2-fluoro-phenyl)-[1,8]naphthyridin-4-yl]-pyridin-3-yl}-phenyl)-ethylamine]

IC50 [1, 2]: < 100 nM
IC50 (GST-ALK5; [3]): < 100 nM
Structure (SMILES): CN1CCN(c2cccc(-c3cncc(-c4cc(-c5cc(Cl)ccc5F)nc5ncccc45)c3)c2)CC1 [compound 116, 2-(5-Chloro-2-fluoro-phenyl)-4-{5-[3-(4-methyl-piperazin-1-yl)-phenyl]-pyridin-3-yl}-[1,8]naphthyridine]

IC50 [1, 2]: 100 to 1000 nM
IC50 (GST-ALK5; [3]): < 100 nM
Structure (SMILES): CN(C)CCNC(=O)c1cccc(-c2cncc(-c3cc(-c4cc(Cl)ccc4F)nc4ncccc34)c2)c1 [compound 118, 3-{5-[2-(5-Chloro-2-fluoro-phenyl)-[1,8]naphthyridin-4-yl]-pyridin-3-yl}-N-(2-dimethylamino-ethyl)-benzamide]

IC50 [1, 2]: < 100 nM
IC50 (GST-ALK5; [3]): < 100 nM
Structure (SMILES): CN1CC[C@H](n2cc(-c3cncc(-c4cc(-c5cc(Cl)ccc5F)nc5ncccc45)c3)cn2)C1 [compound 68, 2-(5-Chloro-2-fluoro-phenyl)-4-{5-[1-((S)-1-methyl-pyrrolidin-3-yl)-1H-pyrazol-4-yl]-pyridin-3-yl}-[1,8]naphthyridine]

IC50 [1, 2]: 1000 to 10000 nM
IC50 (GST-ALK5; [3]): 100 to 1000 nM
Structure (SMILES): Fc1ccccc1-c1cc(-c2cncc(-c3cnn(CCn4cccn4)c3)c2)c2cccnc2n1 [compound 77, 2-(2-Fluoro-phenyl)-4-{5-[1-(2-pyrazol-1-yl-ethyl)-1H-pyrazol-4-yl]-pyridin-3-yl}-[1,8]naphthyridine]

IC50 [1, 2]: 1000 to 10000 nM
Structure (SMILES): Cn1ccc(-c2cncc(-c3cc(-c4ccccc4F)nc4ncccc34)c2)n1 [compound 66, 2-(2-Fluoro-phenyl)-4-[5-(1-methyl-1H-pyrazol-3-yl)-pyridin-3-yl]-[1,8]naphthyridine]

IC50 [1, 2]: 1000 to 10000 nM
Structure (SMILES): Cn1nccc1-c1cncc(-c2cc(-c3ccccc3F)nc3ncccc23)c1 [compound 67, 2-(2-Fluoro-phenyl)-4-[5-(2-methyl-2H-pyrazol-3-yl)-pyridin-3-yl]-[1,8]naphthyridine]

— patent US8912216B2, “Hetaryl-[1,8]naphthyridine derivatives” (Merck Patent GmbH, priority 2010, dated 2014)
